According to the NIST ThermoML archive (doi:10.1007/s10765-006-0063-0):

What was measured:
[1] = 101.33 kPa, Liquid; for speed of sound: Sing-around technique in a fixed-path interferometer
[2] = xn = mol fraction of the nth substance listed; details: 101 kPa, Liquid, Sing-around technique in a fixed-path interferometer

C1COCO1 [1,3-dioxolane]
[1]
Details	mass density [kg/m3]	speed of sound [m/s]
283.15 K	1077.1	1406.3
298.15 K	1058.8	1339.9
313.15 K	1040.2	1271.6

C1CCCCC1 [cyclohexane]
[1]
Details	mass density [kg/m3]	speed of sound [m/s]
283.15 K	788	1327.8
298.15 K	773.7	1254.4
313.15 K	759.6	1181.1

C1COCO1 [1,3-dioxolane] + c1ccccc1
[2]
Details	speed of sound [m/s]
283.15 K, x1 = 0.1037	1373.9
283.15 K, x1 = 0.2005	1377.2
283.15 K, x1 = 0.2977	1380.5
283.15 K, x1 = 0.4007	1383.5
283.15 K, x1 = 0.4995	1386.6
283.15 K, x1 = 0.5967	1389.7
283.15 K, x1 = 0.6984	1393.7
283.15 K, x1 = 0.7942	1397.3
283.15 K, x1 = 0.8973	1401.7
298.15 K, x1 = 0.1	1303.1
298.15 K, x1 = 0.2022	1306.8
298.15 K, x1 = 0.3002	1310.1
298.15 K, x1 = 0.4021	1313.6
298.15 K, x1 = 0.4957	1317
298.15 K, x1 = 0.5968	1320.7
298.15 K, x1 = 0.6965	1325.1
298.15 K, x1 = 0.7985	1329.4
298.15 K, x1 = 0.8973	1334.2
313.15 K, x1 = 0.1006	1233.5
313.15 K, x1 = 0.2	1237.2
313.15 K, x1 = 0.2985	1240.9
313.15 K, x1 = 0.4136	1245.1
313.15 K, x1 = 0.4928	1248.1
313.15 K, x1 = 0.5953	1252
313.15 K, x1 = 0.6979	1256.3
313.15 K, x1 = 0.7968	1261.2
313.15 K, x1 = 0.8979	1266.3

C1COCCO1 [1,4-dioxane] + c1ccccc1
[2]
Details	speed of sound [m/s]
283.15 K, x1 = 0.0521	1370.8
283.15 K, x1 = 0.0942	1372.6
283.15 K, x1 = 0.1987	1376.5
283.15 K, x1 = 0.2956	1380.2
283.15 K, x1 = 0.3936	1383.8
283.15 K, x1 = 0.4947	1387.4
283.15 K, x1 = 0.5964	1391.1
283.15 K, x1 = 0.6956	1395.1
283.15 K, x1 = 0.7963	1399.3
283.15 K, x1 = 0.8949	1404.1
283.15 K, x1 = 0.9526	1407.1
298.15 K, x1 = 0.0516	1300.8
298.15 K, x1 = 0.0888	1302.4
298.15 K, x1 = 0.1966	1307.3
298.15 K, x1 = 0.316	1312.2
298.15 K, x1 = 0.4145	1316.3
298.15 K, x1 = 0.5004	1320
298.15 K, x1 = 0.5975	1324.1
298.15 K, x1 = 0.6932	1328.4
298.15 K, x1 = 0.7962	1333.1
298.15 K, x1 = 0.8938	1338
298.15 K, x1 = 0.9535	1341.1
313.15 K, x1 = 0.0568	1232.1
313.15 K, x1 = 0.0913	1233.6
313.15 K, x1 = 0.2021	1239.2
313.15 K, x1 = 0.2963	1243.7
313.15 K, x1 = 0.3981	1248.6
313.15 K, x1 = 0.4975	1253.1
313.15 K, x1 = 0.5981	1257.9
313.15 K, x1 = 0.6972	1262.7
313.15 K, x1 = 0.7941	1267.5
313.15 K, x1 = 0.9034	1273.3
313.15 K, x1 = 0.9424	1275.5

C1COCO1 [1,3-dioxolane] + C1CCCCC1
[2]
Details	speed of sound [m/s]
283.15 K, x1 = 0.1044	1322
283.15 K, x1 = 0.2011	1317.6
283.15 K, x1 = 0.3005	1315.4
283.15 K, x1 = 0.4009	1316
283.15 K, x1 = 0.4998	1319.7
283.15 K, x1 = 0.602	1327.3
283.15 K, x1 = 0.7002	1339
283.15 K, x1 = 0.7989	1355.7
283.15 K, x1 = 0.8989	1377.7
298.15 K, x1 = 0.0998	1245.1
298.15 K, x1 = 0.2014	1240
298.15 K, x1 = 0.3019	1238.7
298.15 K, x1 = 0.4043	1240.5
298.15 K, x1 = 0.4993	1245.3
298.15 K, x1 = 0.6028	1254.2
298.15 K, x1 = 0.6998	1266.9
298.15 K, x1 = 0.8003	1284.9
298.15 K, x1 = 0.8992	1308.9
313.15 K, x1 = 0.1213	1172.5
313.15 K, x1 = 0.2006	1167.6
313.15 K, x1 = 0.2996	1166.6
313.15 K, x1 = 0.3996	1168.8
313.15 K, x1 = 0.5009	1174.2
313.15 K, x1 = 0.6	1183.2
313.15 K, x1 = 0.6979	1196.3
313.15 K, x1 = 0.7987	1215.2
313.15 K, x1 = 0.8991	1240
